Columns and labels:
Test in all cases: cells
Format in all cases: functional, cell-based
Conditions in all cases: Homo sapiens
EM-2 = test system: EM-2;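 note: growth inhibition of EM-2 cells, read out with a cell viability assay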
Description: SANGER: Inhibition of human EM-2 cell growth in a cell viability assay.

EOL1 = test system: EOL1;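 note: growth inhibition of EoL-1 cells, read out by a cell viability assay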
Description: SANGER: Inhibition of human EoL-1-cell cell growth in a cell viability assay.

HDLM-2 = test system: HDLM-2;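 note: cell viability assay measuring suppression of HDLM-2 proliferation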
Description: SANGER: Inhibition of human HDLM-2 cell growth in a cell viability assay.

NCI-H1650 = test system: NCI-H1650;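 note: growth inhibition of human NCI-H1650 cells measured by a cell viability assay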
Description: SANGER: Inhibition of human NCI-H1650 cell growth in a cell viability assay.

TGBC1TKB = test system: TGBC1TKB;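 note: growth inhibition of TGBC1TKB cells, read out by a cell viability assay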
Description: SANGER: Inhibition of human TGBC1TKB cell growth in a cell viability assay.

NCI-H69 = test system: NCI-H69;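 note: growth inhibition of the cell line, read out with a cell viability assay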
Description: SANGER: Inhibition of human NCI-H69 cell growth in a cell viability assay.

A101D = test system: A101D;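 note: growth inhibition of the cell line, measured with a viability assay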
Description: SANGER: Inhibition of human A101D cell growth in a cell viability assay.

ES1 = test system: ES1;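 note: growth inhibition of ES1 cells, read out with a cell viability assay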
Description: SANGER: Inhibition of human ES1 cell growth in a cell viability assay.

Mo = test system: Mo
Description: SANGER: Inhibition of human Mo-T cell growth in a cell viability assay.

KINGS-1 = test system: KINGS-1;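 note: cell viability assay measuring suppression of KINGS-1 cell growth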
Description: SANGER: Inhibition of human KINGS-1 cell growth in a cell viability assay.

ALL-PO = test system: ALL-PO;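 note: growth inhibition of ALL-PO cells, read out by a cell viability assay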
Description: SANGER: Inhibition of human ALL-PO cell growth in a cell viability assay.

GR-ST = test system: GR-ST
Description: SANGER: Inhibition of human GR-ST cell growth in a cell viability assay.

RH-1 = test system: RH-1;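 note: growth inhibition of human RH-1 cells, read out with a cell viability assay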
Description: SANGER: Inhibition of human RH-1 cell growth in a cell viability assay.

CTB-1 = test system: CTB-1
Description: SANGER: Inhibition of human CTB-1 cell growth in a cell viability assay.

NB10 = test system: NB10;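 note: growth inhibition of NB10 cells, read out by a cell viability assay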
Description: SANGER: Inhibition of human NB10 cell growth in a cell viability assay.

Becker = test system: Becker;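 note: growth inhibition of Becker cells, read out with a cell viability assay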
Description: SANGER: Inhibition of human Becker cell growth in a cell viability assay.

NEC8 = test system: NEC8;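 note: growth inhibition of human NEC8 cells, read out by a cell viability assay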
Description: SANGER: Inhibition of human NEC8 cell growth in a cell viability assay.

COLO-668 = test system: COLO-668
Description: SANGER: Inhibition of human COLO-668 cell growth in a cell viability assay.

U-266 = test system: U-266
Description: SANGER: Inhibition of human U-266 cell growth in a cell viability assay.

CGTH-W-1 = test system: CGTH-W-1;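 note: growth inhibition of human CGTH-W-1 cells measured by cell viability assay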
Description: SANGER: Inhibition of human CGTH-W-1 cell growth in a cell viability assay.

HCC1187 = test system: HCC1187;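 note: growth inhibition of HCC1187 cells, read out with a cell viability assay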
Description: SANGER: Inhibition of human HCC1187 cell growth in a cell viability assay.

TE-8 = test system: TE-8;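 note: growth inhibition of TE-8 cells, measured with a cell viability readout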
Description: SANGER: Inhibition of human TE-8 cell growth in a cell viability assay.

HC-1 = test system: HC-1;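 note: growth inhibition of HC-1 cells measured by a cell viability assay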
Description: SANGER: Inhibition of human HC-1 cell growth in a cell viability assay.

L-428 = test system: L-428
Description: SANGER: Inhibition of human L-428 cell growth in a cell viability assay.

LB2241-RCC = test system: LB2241-RCC;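 note: cell viability assay measuring how strongly the cultured human renal carcinoma line is prevented from growing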
Description: SANGER: Inhibition of human LB2241-RCC cell growth in a cell viability assay.

LB1047-RCC = test system: LB1047-RCC;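 note: inhibition of cell growth, determined with a cell viability assay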
Description: SANGER: Inhibition of human LB1047-RCC cell growth in a cell viability assay.

BB30-HNC = test system: BB30-HNC;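 note: growth inhibition of the cultured cell line, read out by a cell viability assay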
Description: SANGER: Inhibition of human BB30-HNC cell growth in a cell viability assay.

NCI-H1355 = test system: NCI-H1355;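 note: growth inhibition of human NCI-H1355 cells, read out by a cell viability assay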
Description: SANGER: Inhibition of human NCI-H1355 cell growth in a cell viability assay.

NB13 = test system: NB13;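 note: cell viability readout measuring growth inhibition of human NB13 cells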
Description: SANGER: Inhibition of human NB13 cell growth in a cell viability assay.

SK-N-DZ = test system: SK-N-DZ;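 note: growth inhibition of the cancer cell line, read out through a viability assay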
Description: SANGER: Inhibition of human SK-N-DZ cell growth in a cell viability assay.

KNS-81-FD = test system: KNS-81-FD;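 note: growth inhibition of KNS-81-FD cells, read out with a cell viability assay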
Description: SANGER: Inhibition of human KNS-81-FD cell growth in a cell viability assay.

TE-9 = test system: TE-9;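 note: cell growth inhibition, measured with a cell viability readout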
Description: SANGER: Inhibition of human TE-9 cell growth in a cell viability assay.

AM-38 = test system: AM-38;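 note: growth inhibition of AM-38 cells of human origin, read out by a cell viability assay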
Description: SANGER: Inhibition of human AM-38 cell growth in a cell viability assay.

KY821 = test system: KY821;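 note: growth inhibition of human KY821 cells, read out by a cell viability assay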
Description: SANGER: Inhibition of human KY821 cell growth in a cell viability assay.

NCI-H226 = test system: NCI-H226;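 note: cell viability read-out used to gauge growth inhibition of the cells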
Description: SANGER: Inhibition of human NCI-H226 cell growth in a cell viability assay.

HCC2218 = test system: HCC2218;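 note: cell viability assay read-out, with IC50 given as the concentration that inhibits growth of the cell line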
Description: SANGER: Inhibition of human HCC2218 cell growth in a cell viability assay.

NCI-H82 = test system: NCI-H82;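 note: growth inhibition of NCI-H82 cells, measured with a cell viability readout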
Description: SANGER: Inhibition of human NCI-H82 cell growth in a cell viability assay.

HD-MY-Z = test system: HD-MY-Z;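 note: growth inhibition of HD-MY-Z cells, read out with a cell viability assay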
Description: SANGER: Inhibition of human HD-MY-Z cell growth in a cell viability assay.

COLO-320-HSR = test system: COLO-320-HSR;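 note: growth inhibition of COLO-320-HSR cells, determined with a cell viability assay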
Description: SANGER: Inhibition of human COLO-320-HSR cell growth in a cell viability assay.

SNU-C2B = test system: SNU-C2B;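 note: cell viability readout used to measure compound-driven suppression of SNU-C2B cell proliferation, IC50 marking half-maximal growth inhibition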
Description: SANGER: Inhibition of human SNU-C2B cell growth in a cell viability assay.

DMS-114 = test system: DMS-114
MSTO-211H = test system: MSTO-211H
Description: SANGER: Inhibition of human MSTO-211H cell growth in a cell viability assay.

NCI-H747 = test system: NCI-H747;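 note: growth inhibition of human NCI-H747 cells, read out by a cell viability assay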
Description: SANGER: Inhibition of human NCI-H747 cell growth in a cell viability assay.

MC116 = test system: MC116;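 note: growth inhibition of MC116 cells, read out with a cell viability assay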
Description: SANGER: Inhibition of human MC116 cell growth in a cell viability assay.

COLO-800 = test system: COLO-800;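 note: growth inhibition of COLO-800 cells, read out with a cell viability assay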
Description: SANGER: Inhibition of human COLO-800 cell growth in a cell viability assay.

SJSA-1 = test system: SJSA-1;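 note: growth inhibition of human SJSA-1 cells, read out through a cell viability measurement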
Description: SANGER: Inhibition of human SJSA-1 cell growth in a cell viability assay.

CAS-1 = test system: CAS-1;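 note: growth inhibition of CAS-1 cells, measured with a cell viability assay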
Description: SANGER: Inhibition of human CAS-1 cell growth in a cell viability assay.

SK-LMS-1 = test system: SK-LMS-1;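 note: growth inhibition of human SK-LMS-1 cells, read out with a cell viability assay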
Description: SANGER: Inhibition of human SK-LMS-1 cell growth in a cell viability assay.

CTV-1 = test system: CTV-1;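 note: growth inhibition of the cell line, read out with a cell viability assay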
Description: SANGER: Inhibition of human CTV-1 cell growth in a cell viability assay.

TGBC24TKB = test system: TGBC24TKB;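 note: growth inhibition of human TGBC24TKB cells, read out with a cell viability assay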
Description: SANGER: Inhibition of human TGBC24TKB cell growth in a cell viability assay.

NCI-H720 = test system: NCI-H720;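 note: growth inhibition of human NCI-H720 cells determined by a cell viability assay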
Description: SANGER: Inhibition of human NCI-H720 cell growth in a cell viability assay.

LAMA-84 = test system: LAMA-84;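 note: growth inhibition of LAMA-84 cells, read out with a cell viability assay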
Description: SANGER: Inhibition of human LAMA-84 cell growth in a cell viability assay.

A388 = test system: A388;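 note: growth inhibition of human A388 cells, read out with a cell viability assay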
Description: SANGER: Inhibition of human A388 cell growth in a cell viability assay.

SNB-75 = test system: SNB-75;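 note: cell viability assay measuring growth inhibition of human SNB-75 cells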
Description: SANGER: Inhibition of human SNB75 cell growth in a cell viability assay.

HOP-62 = test system: HOP-62;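 note: cell growth inhibition determined with a viability assay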
Description: SANGER: Inhibition of human HOP-62 cell growth in a cell viability assay.

SF-126 = test system: SF-126;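 note: growth inhibition of human SF126 cells, read out with a cell viability assay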
Description: SANGER: Inhibition of human SF126 cell growth in a cell viability assay.

MFM-223 = test system: MFM-223
Description: SANGER: Inhibition of human MFM-223 cell growth in a cell viability assay.

LS-1034 = test system: LS-1034
Description: SANGER: Inhibition of human LS-1034 cell growth in a cell viability assay.

DSH1 = test system: DSH1;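 note: growth inhibition of human DSH1 cells, measured with a cell viability readout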
Description: SANGER: Inhibition of human DSH1 cell growth in a cell viability assay.

SF-539 = test system: SF-539
Description: SANGER: Inhibition of human SF539 cell growth in a cell viability assay.

GB-1 = test system: GB-1
Description: SANGER: Inhibition of human GB-1 cell growth in a cell viability assay.

NCI-H1395 = test system: NCI-H1395
Description: SANGER: Inhibition of human NCI-H1395 cell growth in a cell viability assay.

KGN = test system: KGN
Description: SANGER: Inhibition of human KGN cell growth in a cell viability assay.

KNS-42 = test system: KNS-42
Description: SANGER: Inhibition of human KNS-42 cell growth in a cell viability assay.

TE-12 = test system: TE-12
Description: SANGER: Inhibition of human TE-12 cell growth in a cell viability assay.

RKO = test system: RKO
Description: SANGER: Inhibition of human RKO cell growth in a cell viability assay.

Cn1cc(/C=C2\C(=O)Nc3cccnc32)c2ccccc21
IC50 (EM-2): > 2000 nM | IC50 (EOL1): > 2000 nM | IC50 (HDLM-2): > 2000 nM | IC50 (NCI-H1650): > 2000 nM | IC50 (TGBC1TKB): > 2000 nM | IC50 (NCI-H69): > 2000 nM | IC50 (A101D): > 2000 nM | IC50 (ES1): > 2000 nM | IC50 (Mo): > 2000 nM | IC50 (KINGS-1): > 2000 nM | IC50 (ALL-PO): > 2000 nM | IC50 (GR-ST): > 2000 nM | IC50 (RH-1): > 2000 nM | IC50 (CTB-1): > 2000 nM | IC50 (NB10): > 2000 nM | IC50 (Becker): > 2000 nM | IC50 (NEC8): 1230 nM | IC50 (COLO-668): > 2000 nM | IC50 (U-266): > 2000 nM | IC50 (CGTH-W-1): > 2000 nM | IC50 (HCC1187): > 2000 nM | IC50 (TE-8): > 2000 nM | IC50 (HC-1): > 2000 nM | IC50 (L-428): > 2000 nM | IC50 (LB2241-RCC): > 2000 nM | IC50 (LB1047-RCC): > 2000 nM | IC50 (BB30-HNC): > 2000 nM | IC50 (NCI-H1355): > 2000 nM | IC50 (NB13): > 2000 nM | IC50 (SK-N-DZ): > 2000 nM | IC50 (KNS-81-FD): > 2000 nM | IC50 (TE-9): > 2000 nM | IC50 (AM-38): > 2000 nM | IC50 (KY821): > 2000 nM | IC50 (NCI-H226): > 2000 nM | IC50 (HCC2218): > 2000 nM | IC50 (NCI-H82): > 2000 nM | IC50 (HD-MY-Z): > 2000 nM | IC50 (COLO-320-HSR): > 2000 nM | IC50 (SNU-C2B): > 2000 nM | IC50 (DMS-114): > 2000 nM | IC50 (MSTO-211H): > 2000 nM | IC50 (NCI-H747): > 2000 nM | IC50 (MC116): > 2000 nM | IC50 (COLO-800): > 2000 nM | IC50 (SJSA-1): > 2000 nM | IC50 (CAS-1): > 2000 nM | IC50 (SK-LMS-1): > 2000 nM | IC50 (CTV-1): > 2000 nM | IC50 (TGBC24TKB): > 2000 nM | IC50 (NCI-H720): > 2000 nM | IC50 (LAMA-84): > 2000 nM | IC50 (A388): > 2000 nM | IC50 (SNB-75): > 2000 nM | IC50 (HOP-62): 322 nM | IC50 (SF-126): > 2000 nM | IC50 (MFM-223): > 2000 nM | IC50 (LS-1034): > 2000 nM | IC50 (DSH1): > 2000 nM | IC50 (SF-539): > 2000 nM | IC50 (GB-1): > 2000 nM | IC50 (NCI-H1395): > 2000 nM | IC50 (KGN): > 2000 nM | IC50 (KNS-42): > 2000 nM | IC50 (TE-12): > 2000 nM | IC50 (RKO): > 2000 nM

N#C/C(=C1/Nc2ccccc2S1)c1ccnc(NCCc2cccnc2)n1
IC50 (EM-2): > 8000 nM | IC50 (EOL1): 2490 nM | IC50 (HDLM-2): > 8000 nM | IC50 (NCI-H1650): > 8000 nM | IC50 (TGBC1TKB): > 8000 nM | IC50 (NCI-H69): > 8000 nM | IC50 (A101D): 2220 nM | IC50 (ES1): > 8000 nM | IC50 (Mo): > 8000 nM | IC50 (KINGS-1): > 8000 nM | IC50 (ALL-PO): 1790 nM | IC50 (GR-ST): > 8000 nM | IC50 (RH-1): > 8000 nM | IC50 (CTB-1): > 8000 nM | IC50 (NB10): > 8000 nM | IC50 (Becker): 4340 nM | IC50 (NEC8): > 8000 nM | IC50 (COLO-668): 4470 nM | IC50 (U-266): > 8000 nM | IC50 (CGTH-W-1): 5540 nM | IC50 (HCC1187): 1810 nM | IC50 (TE-8): 2910 nM | IC50 (HC-1): > 8000 nM | IC50 (L-428): > 8000 nM | IC50 (LB2241-RCC): > 8000 nM | IC50 (LB1047-RCC): 1680 nM | IC50 (BB30-HNC): > 8000 nM | IC50 (NCI-H1355): 1110 nM | IC50 (NB13): > 8000 nM | IC50 (SK-N-DZ): > 8000 nM | IC50 (KNS-81-FD): > 8000 nM | IC50 (TE-9): 6490 nM | IC50 (AM-38): > 8000 nM | IC50 (KY821): > 8000 nM | IC50 (NCI-H226): > 8000 nM | IC50 (HCC2218): > 8000 nM | IC50 (NCI-H82): > 8000 nM | IC50 (HD-MY-Z): > 8000 nM | IC50 (COLO-320-HSR): > 8000 nM | IC50 (SNU-C2B): 7850 nM | IC50 (DMS-114): > 8000 nM | IC50 (MSTO-211H): > 8000 nM | IC50 (NCI-H747): 6030 nM | IC50 (MC116): 3170 nM | IC50 (COLO-800): > 8000 nM | IC50 (SJSA-1): > 8000 nM | IC50 (CAS-1): > 8000 nM | IC50 (SK-LMS-1): 7380 nM | IC50 (CTV-1): 2850 nM | IC50 (TGBC24TKB): > 8000 nM | IC50 (NCI-H720): > 8000 nM | IC50 (LAMA-84): > 8000 nM | IC50 (A388): > 8000 nM | IC50 (SNB-75): 5270 nM | IC50 (HOP-62): > 8000 nM | IC50 (SF-126): > 8000 nM | IC50 (MFM-223): > 8000 nM | IC50 (LS-1034): > 8000 nM | IC50 (DSH1): > 8000 nM | IC50 (SF-539): > 8000 nM | IC50 (GB-1): > 8000 nM | IC50 (NCI-H1395): > 8000 nM | IC50 (KGN): 5850 nM | IC50 (KNS-42): > 8000 nM | IC50 (TE-12): 1400 nM | IC50 (RKO): 2310 nM
